Measurements: patent US20150216903A1, “COMPOUNDS FOR IMPROVED VIRAL TRANSDUCTION” (BLUEBIRD BIO, INC., priority 2012, published 2015)

Columns and labels:
[1] = system: CD34+ cells; test: FACS staining after transduction with ALD (ABCD1)-expressing lentivirus; type: cell-based, human; conditions: ABCD1 lentivirus MOI 25
Experimental: One vial of CD34+ cells (AllCells) were thawed by incubating at 37° C. for 1-2 minutes and contents were transferred to 10 mL Stem Cell Growth Media (hereafter referred to as SCGM) in a 15-mL conical tube. Cells were spun for 5 minutes at 1500 RPM in a standard tabletop centrifuge, resuspended in 10 mL SCGM and counted on a hemacytometer. A volume correlating with an appropriate number of cells was transferred to a fresh 15-mL conical tube, and again spun for 5 minutes at 1500 RPM. Cells were resuspended to the desired cell concentration in SCGM+1× cytokines (100 ng/mL SCF, 100 ng/mL TPO, 100 ng/mL FltL, and 30 ng/mL IL-3), and plated on a sterile non-adherent surface at 37° C. in a standard humidified tissue culture incubator (5% CO2).
(§1) Pre-stimulated cells (Example 1) were counted after 18-24 hours of culture. The cells were collected and spun for 5 minutes at 1500 RPM. 1.2×10^6 pre-stimulated CD34^+ cells were resuspended in 60 uL 10× cytokines (1000 ng/mL SCF, 1000 ng/mL TPO, 1000 ng/mL FltL, and 300 ng/mL IL-3), 7.8 uL protamine sulfate, 111 uL viral supernatant, and 361.2 uL SCGM. 90 uL cell/virus suspension (about 200,000 cells) was added to each well of a standard non-adherent 96-well plate. dmPGE2 was added during this viral transduction step at a final concentration of 100 uM, 50 uM, 25 uM, 12.5 uM, 1 uM, or 0 uM.
(§2) After 24 hours of culture with virus and dmPGE2, cells were washed prior to subsequent functional validation assays. Washing was performed by transferring cells to a 96-well U-bottom plate and spinning for 5 minutes at 1500 RPM in a standard tabletop centrifuge. Media was aspirated and cells were resuspended in 200 uL SCGM. Cells were spun again for 5 minutes at 1500 RPM and media was aspirated. Cells were again resuspended in 200 uL SCGM then spun for 5 minutes at 1500 RPM, and again the media was aspirated. Particular functional validation assays are described below.
(§3) Washed cells were resuspended in 200 uL SCGM+lx cytokines (as described in Example 1) and transferred to a standard 12-well non-adherent tissue culture plate containing an additional 800 uL SCGM+lx cytokines Cells were maintained for an additional 6 days in a standard humidified tissue culture incubator (5% CO2) and then subjected Vector Copy Number analysis (Example 5) and FACS analysis. For FACS analysis, cells were assayed for the presence of a virally-encoded transgene, green fluorescent protein (GFP). The frequency of the virally-labeled cells within the pool of cultured cells was quantified as the frequency of GFP+ cells within the population. The mean fluorescence intensity of labeled cells was quantified.
(§4) Tables 3A-C indicate the dose-response of dmPGE2 in promoting viral transduction of CD34+ cells for three separate experiments. CD34+ cells were thawed and pre-stimulated with SCF, TPO, FltL, and IL3, then transduced (A) with GFP+ lentivirus at a multiplicity of infection of 25, (B) with GFP+ lentivirus at a multiplicity of infection of 5, or (C) transduced with an ALD (ABCD1)-expressing lentivirus at a multiplicity of infection of 25. Cells were exposed to dmPGE2 during the viral transduction step (24-48 hours of culture). Cells were then washed and analyzed by flow cytometry and PCR after approximately 1 week in culture. The percentage of cells positive for GFP (A, B) or ALD (C) via FACS staining is indicated, along with the mean fluorescent intensity (MFI) and vector copy number (VCN) (A, B).

[2] = system: CD34+ cells; test: Vector Copy Number analysis (qRT-PCR, viral LTR vs human beta-actin) after GFP+ lentivirus transduction; type: cell-based
Experimental: as §1, §2, §3
Briefly, total genomic DNA was isolated from cells through standard protocols (for example, through DNEasy columns from Qiagen). Genomic DNA was subjected to quantitative real-time polymerase chain reaction (qRT-PCR) with TaqMan probes for viral LTR and human beta-actin. The Ct values for viral signal and beta-actin signal were normalized to a standardized control, and the number of viral copies per copy of beta actin were calculated. A linear relationship between the vector copy number and the mean fluorescence intensity (Example 4) was observed when a viral construct that encodes GFP was used.
as §4

## CCCCC(C)(C)[C@H](O)/C=C/[C@H]1[C@H](O)CC(=O)[C@@H]1C/C=C\CCCC(=O)O [dmPGE2, 16,16-dimethyl PGE2]
[1]; dmPGE2 1 uM during transduction (24-48 hours of culture)
  % Positive (ALD): 34.13%
[1]; dmPGE2 12.5 uM during transduction (24-48 hours of culture)
  % Positive (ALD): 45.36%
[1]; dmPGE2 25 uM during transduction (24-48 hours of culture)
  % Positive (ALD): 43.76%
[1]; dmPGE2 50 uM during transduction (24-48 hours of culture)
  % Positive (ALD): 56.10%
[1]; dmPGE2 100 uM during transduction (24-48 hours of culture)
  % Positive (ALD): 72.26%
[2]; dmPGE2 12.5 uM during transduction, GFP lentivirus MOI 5
  VCN: 0.18
[2]; dmPGE2 12.5 uM during transduction, GFP lentivirus MOI 25
  VCN: 1.5
[2]; dmPGE2 25 uM during transduction, GFP lentivirus MOI 5
  VCN: 0.21
[2]; dmPGE2 25 uM during transduction, GFP lentivirus MOI 25
  VCN: 1.7
[2]; dmPGE2 50 uM during transduction, GFP lentivirus MOI 5
  VCN: 0.715
[2]; dmPGE2 50 uM during transduction, GFP lentivirus MOI 25
  VCN: 2.2
[2]; dmPGE2 100 uM during transduction, GFP lentivirus MOI 5
  VCN: 0.83
[2]; dmPGE2 100 uM during transduction, GFP lentivirus MOI 25
  VCN: 3.55
